Source: patent US10363251B2, “(+)-morphinans as antagonists of toll-like receptor 9 and therapeutic uses thereof” (Mallinckrodt LLC, priority 2009, dated 2019)

Experiments:
TLR8 = target: T1, TLR8 (Homo sapiens, UniProt Q9NR97); test: TLR8 antagonist screening, NF-κB-inducible SEAP reporter in HEK293 cells; assay type: cell-based; details: for Average % Inhibition at TLR8: 10 μM, stimulated with CL075 at 1 μg/ml
T1 construct: expressed in transfected cells; host or cells: HEK293
T1 sequence (Q9NR97 27-1041): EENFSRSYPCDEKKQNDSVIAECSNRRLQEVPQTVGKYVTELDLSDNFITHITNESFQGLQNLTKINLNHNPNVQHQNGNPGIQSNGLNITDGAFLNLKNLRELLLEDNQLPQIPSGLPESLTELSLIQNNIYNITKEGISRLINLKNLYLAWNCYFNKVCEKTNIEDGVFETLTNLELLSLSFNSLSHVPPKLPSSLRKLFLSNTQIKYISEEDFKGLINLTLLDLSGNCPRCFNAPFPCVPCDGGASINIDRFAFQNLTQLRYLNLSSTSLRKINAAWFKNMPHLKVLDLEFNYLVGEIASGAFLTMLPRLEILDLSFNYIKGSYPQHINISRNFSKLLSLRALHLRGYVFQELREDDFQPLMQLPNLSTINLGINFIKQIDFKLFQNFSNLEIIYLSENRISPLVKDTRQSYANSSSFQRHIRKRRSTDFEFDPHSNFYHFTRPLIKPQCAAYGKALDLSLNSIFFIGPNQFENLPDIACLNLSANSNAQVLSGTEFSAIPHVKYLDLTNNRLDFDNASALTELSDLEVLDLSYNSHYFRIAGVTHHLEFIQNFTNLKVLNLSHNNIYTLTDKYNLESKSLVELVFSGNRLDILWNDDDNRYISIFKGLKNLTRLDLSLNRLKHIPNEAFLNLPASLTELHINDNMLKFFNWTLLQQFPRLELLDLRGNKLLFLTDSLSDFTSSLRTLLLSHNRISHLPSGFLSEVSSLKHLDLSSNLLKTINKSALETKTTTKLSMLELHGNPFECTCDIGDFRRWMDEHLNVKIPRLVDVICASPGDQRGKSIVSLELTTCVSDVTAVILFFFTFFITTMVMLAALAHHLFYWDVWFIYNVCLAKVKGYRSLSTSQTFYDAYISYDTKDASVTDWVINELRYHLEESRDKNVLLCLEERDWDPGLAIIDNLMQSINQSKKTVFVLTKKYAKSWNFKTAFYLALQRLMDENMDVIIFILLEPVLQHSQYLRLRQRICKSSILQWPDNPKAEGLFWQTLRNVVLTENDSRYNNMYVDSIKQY
Experimental: Stimulation of TLRs 2, 3, 4, 5, 7, 8, and 9 was determined by assessing activation of the transcription factor NF-κB in HEK293 cells that were engineered to express the corresponding receptors. Assessment of TLR stimulation was based on the use of an NF-κB-inducible secreted alkaline phosphatase (SEAP) reporter system in which the SEAP reporter was under the control of a promoter inducible by NF-κB. Thus, the degree of activation of TLRs can be indirectly quantified spectrophotometrically by measuring the amount of the SEAP reporter that is produced.
The appropriate TLR-expressing cells were plated in Growth Medium in a 96-well plate (25,000-50,000 cells/well). The cells were stimulated with the appropriate positive control ligand or no ligand was added (negative control). The positive control ligands were: HKLM was used to stimulate TLR2; poly(I:C) was used to stimulate TLR3; LPS was used to stimulate TLR4; Flagellin was used to stimulate TLR5; CL097 was used to stimulate TLR7; CL075 was used to stimulate TLR8; CpG oligodeoxynucleotide (ODN) 2006 was used to stimulate TLR9. To test whether (+)-morphinans could block that activation of the TLR, the cells were pretreated with an antagonist for 30 minutes prior to addition of the positive control ligand. […] After a 16-20 hr incubation period at 37° C. in a CO2 incubator, 20 μL of the cell culture supernatant was added to 180 μL of QUANTI-Blue™ Media (InvivoGen, San Diego, Calif.), and the resulting solutions were incubated at 37° C. for an additional 1-3 hours according to the manufacturer's instructions. The OD's of the samples were then read at 650 nm on a Beckman Coulter AD 340C Absorbance Detector.

[1] = system: hepatic ischemia reperfusion (IR) injury; test: Hepatic ischemia reperfusion (IR) injury model; assay type: in vivo, mouse
Experimental: Anesthetized mice were subjected to 1 hour of hepatic ischemia by occluding the vasculature supplying the left and median lobes (ischemic lobes) of the liver by a microvascular clamp. Thereafter, the blood supply was resumed (reperfusion). Some animals were sacrificed after 3 hour of reperfusion, and others after 12 hours or reperfusion. The experimental group received Cmpd II-78 at a dose of 80 mg/kg given intraperitoneally 1 hour prior to starting ischemia. The compound was administered before the start of ischemia to mimic the presumed clinical timing of delivery.
Livers were sectioned, stained, examined, and scored (Suzuki scoring system) based on the presence and/or severity of sinusoidal congestion, cytoplasmic vacuolization, and necrosis of parenchymal cells, as indicated in the table below. The levels of serum alanine transaminase (ALT) were also measured using a standard assay.
IL-1β, MCP-1, and NLPR3 have pro-inflammatory and tissue damaging properties, and IL-1R antagonist (IL-1Ra) has anti-inflammatory and pro-reparative functions in the liver. MAP kinases are part of an important cytoplasmic signaling cascade that are known to be activated (i.e., phosphorylated) by IR. The levels of IL-1β, MCP-1, NLPR3, and IL-1Ra mRNA were determined in whole liver (at the 12 hour time point) using standard techniques (e.g., RT-PCR). The activation of MAP kinases was determined in whole liver lysates by Western blotting using phospho-specific antibodies (12 hour time point).

[2] = system: APAP-induced liver toxicity; test: Acetaminophen (APAP)-induced hepatotoxicity model; assay type: in vivo, mouse; details: APAP 500 mg/Kg ip, 12 hours post-APAP; for Protection from APAP-induced toxicity: test doses and timing per Table 6; for Liver histology scores (necrosis and hemorrhage) / Serum alanine transaminase (ALT) levels: vs APAP alone
Experimental: For this, APAP-induced liver toxicity was induced in male C57BL/6 mice aged between 8-10 weeks by a single intraperitoneal (ip) injection of APAP in PBS at a dose of 500 mg/Kg (Imaeda et al. (2009) J. Clin. Invest. 119(2):305-314). The ability of (+)-morphinans to reduce liver toxicity was tested in the following groups:
The (+)-morphinan (or PBS) was either administered as a single subcutaneous (sc) or ip injection concurrent with the APAP injection or one hour prior to the APAP injection.
The mice were sacrificed 12 hours post-APAP treatment. Liver samples were stained with H&E and analyzed for signs of necrosis and hemorrhage. Histology scores were assigned using the standard rating scale. The levels of serum alanine transaminase (ALT) were also measured in each animal using a standard assay.

[3] = whole liver, 12 hours of reperfusion

**Q.** Which inhibition at 10 µM (TLR8; HEK293, stimulated with CL075 at 1 μg/ml) does the source give for COC1=C[C@@H]2[C@@H]3Cc4ccc(OC)c(O)c4[C@]2(CCN3C)CC1=O [Sinomenine, sinomenine] here?
**A.** The inhibition at 10 µM was 20%.

**Q.** With CN[C@@H]1CC[C@]2(O)[C@@H]3Cc4ccc(O)c5c4[C@]2(CCN3CC2CC2)[C@@H]1O5 [II-78] as the molecule, how does the “Histological Suzuki score (hepatic IR injury)” value ([1]; 80 mg/kg ip 1 hour prior to ischemia, 1 h ischemia, 3 and 12 hours of reperfusion) read?
**A.** Its value is “reduced hepatic ischemic reperfusion (IR) injury”.

**Q.** And the “IR-induced serum ALT levels” value ([1]; 80 mg/kg ip, 3 and 12 hours of reperfusion)?
**A.** The value was “reduced IR-induced serum alanine transaminase (ALT) levels”.

**Q.** What about the “Liver injury (serum ALT)” value ([1]; 80 mg/kg ip, 3 hour time point) of the same molecule?
**A.** The value was “trend towards reduction”.

**Q.** And the “Liver injury (serum ALT)” value ([1]; 80 mg/kg ip, 12 hour time point)?
**A.** The value was “significantly reduced liver injury”.

**Q.** What about the “IR-induced cleavage and activation of TLR9 (western blotting)” value ([1]; liver) of the same molecule?
**A.** Its value is “reduction of IR-induced cleavage and activation of LTR9”.

**Q.** And the “IR-induced activation of MAP kinases (western blotting)” value ([1]; whole liver lysates, 12 hour time point)?
**A.** The value was “reduction of IR-induced activation of MAP kinases”.

**Q.** What about the “Anti-inflammatory molecule IL-1Ra mRNA relative to β-actin” value [1, 3] of the same molecule?
**A.** The value was “increased an anti-inflammatory molecule”.

**Q.** And the “IR-induced pro-inflammatory cytokines (IL-1β, MCP-1, NLPR3 mRNA relative to β-actin)” value [1, 3]?
**A.** Its value is “reduced IR-induced pro-inflammatory cytokines”.

**Q.** And the “Protection from APAP-induced toxicity” value [2]?
**A.** Its value is “provided protection”.

**Q.** What about the “Liver histology scores (necrosis and hemorrhage)” value [2] of the same molecule?
**A.** The value was “reduced to about half”.

**Q.** And the “Serum alanine transaminase (ALT) levels” value [2]?
**A.** The value was “reduced significantly”.

**Q.** With COc1ccc2c(c1O)[C@@]13CCN(C)[C@@H](C2)[C@H]1CC(OC)C(=O)C3 (stereo partly drawn) [Dihydrosinomenine, dihydrosinomenine] as the molecule, how does the “Average % Inhibition at TLR8” value (TLR8) read?
**A.** The value was 21%.

**Q.** C=CCN1CC[C@]23c4c5ccc(O)c4O[C@H]2C(=O)CC[C@]3(O)[C@H]1C5 [(+)-Naloxone, (+)-naloxone] was tested. Which “Average % Inhibition at TLR8” value (TLR8) did it give?
**A.** The value was 24%.

**Q.** What about the “Protection from APAP-induced toxicity” value [2] of the same molecule?
**A.** Its value is “essentially no protection”.

**Q.** And the “Protection from APAP-induced toxicity” value ([2]; listed as (+)-naloxone)?
**A.** The value was “did not affect acetaminophen-induced hepatotoxicity”.

**Q.** And the “Liver histology scores (necrosis and hemorrhage)” value [2]?
**A.** Its value is “did not improve the histology scores”.

**Q.** And the “Serum alanine transaminase (ALT) levels” value [2]?
**A.** Its value is “reduced the ALT levels”.
